Where two headings read alike, the source gives them in different places. Each block holds one molecule with its values, some of them ahead of it.
Key:
[1] = system: MoMSV-induced sarcomas; assay: microPET/CT in oncoretrovirus (MoMSV) sarcoma model of anti-tumor immunity
Protocol: All the mice used in these studies were bred and maintained according to the guidelines of the Department of Laboratory Animal Medicine (DLAM) at the University of California, Los Angeles. For the oncoretrovirus-induced sarcoma model, C57/BL6 mice were challenged intramuscularly in the right triceps with the Moloney murine sarcoma and leukemia virus complex (MoMSV) in a volume of 100 uL of PBS as described previously^6. B6-MRL-Fas^1pr/J mice used for systemic autoimmunity studies were purchased from the Jackson Laboratory (stock number 000482). To monitor the immunosuppressive treatment, these mice were given intraperitoneal injections of dexamethasone (DEX, 10 mg/kg) at 24 hr intervals and were scanned by microPET/CT 24 hr after the last injection. Animals were anesthetized with 2% isoflurane, injected intravenously with 200 microCi [^18F]D-FAC and then scanned with microPET/CT; mice were sacrificed immediately after imaging. Organs were rapidly excised, weighed, and the radioactivity was measured in a well counter. After decay correction, results were expressed as percent of the injected dose of activity per gram of tissue (% ID/g). Other mice were anesthetized with 2% isoflurane and injected intravenously with 1 mCi [^18F]D-FAC. After 1 hr, mice were euthanized, embedded in 3% carboxymethyl cellulose (CMC, Sigma), and frozen in 100% ethanol with dry ice for 45 min. The 50 micron sections were cut using a whole body cryostat, (PMV, Stockholm, Sweden); samples were exposed overnight on BAS-TR2025 plates (Fujifilm Life Science, Stamford, Conn.). Imaging plates were read using a Fujibas-5000 phosphorimager (16 bit, 25 micron resolution; Fujifilm Life Science).
In this model, antigen-specific T cells primed by immunodominant epitopes encoded by viral gag and env genes rapidly expand in spleen and tumor draining lymph nodes (DLNs) and then traffic to the tumor lesion which is rejected over a period of 2-5 weeks^17,18. In fact, the kinetics of T cell responses against MoMSV-induced sarcomas have been studied extensively using conventional ex vivo approaches and our group has used PET reporter gene imaging to visualize tumor rejection in this model^17. To analyze whether the [^18F]D-FAC microPET/CT imaging can detect sites of localized immune activation, mice were scanned before and after the virus challenge.
To determine whether [^18F]D-FAC can provide unique information regarding localized immune activation via the afore-mentioned model, the mice imaged by [^18F]D-FAC were also scanned on consecutive days using [^18F]FDG and [^18F]FLT.

[2] = system: L1210 wild type or 10K subcutaneous tumors; assay: PET of subcutaneous L1210 wild type and 10K tumors; type: in vivo, SCID mice
Protocol: To investigate whether [^18F]D-FAC PET can distinguish gemcitabine-sensitive cancer cells from the resistant cancer cells in vivo, mice were injected with L1210 wild type or 10K cells to establish subcutaneous tumors; mice were scanned with [^18F]FDG PET to confirm that implanted cells were viable and growing in vivo and [^18F]D-FAC PET scans were carried out to compare D-FAC accumulation in gemcitabine sensitive versus resistant cells. […] The mice were injected 4 days prior to imaging.
Mice were challenged with the MoMSV onco-retrovirus.

[3] = system: T lymphocytes from pmel-1 T cell receptor (TCR) transgenic mice; assay: retention of ^3H-labeled nucleoside analogs in naïve and proliferating primary T cells; type: cell-based, mouse
Protocol: In order to identify candidates for PET probes that can distinguish between activated T cells and non-activated, naïve T cells, we conducted a radioactive uptake assay, the results of which are shown in FIG. 1. […] These measurements were performed after incubating cells with radioactive compounds for 1 hr and performing successive washes to remove unincorporated probes. […] For example, we identified compounds #1 through #15 (see FIG. 2A for chemical structures) as PET probe candidates useful for detecting activated T cells. FIG. 2A presents substrates of dCK labeled with the ^18F positron emitting radioisotope.
T lymphocytes from pmel-1 T cell receptor (TCR) transgenic mice were stimulated ex vivo using a melanoma antigen (1 micromolar hgp 10025-33). These cells were then cultured for radioactive uptake and kinase assays that were performed 72 hours post-stimulation. […] The plate was then washed 5 times with media containing 5% fetal calf serum (FCS) by using the Millipore Vacuum Manifold (Billerica, Mass.); the amount of incorporated probe was measured by scintillation counting using the PerkinElmer Microbeta (Waltham, Mass.). […]
FIG. 1 identifies fluorinated deoxycytidine analogs retained in activated versus naive T lymphocytes and incorporated into DNA. […] Following successive washes, intracellular radioactivity was measured by scintillation counting. […]

[4] = system: NIH3T3 fibroblasts engineered to overexpress nucleoside kinases (dCK) and the nucleoside transporter SLC29A1; assay: [^3H]D-FAC uptake in engineered NIH3T3 fibroblasts; type: cell-based
[5] = system: L1210 murine leukemia cells (dCK^+); assay: radioactive tracer uptake assay, L1210 parental cells; type: cell-based; conditions: for dependence of retention and phosphorylation on dCK expression: L1210 wild type vs 10K cells, 1 hour incubation
Description: (§1) To evaluate whether [^18F]D-FAC PET can determine resistance to gemcitabine and Ara-C, we used a previously described experimental model based on the L1210 murine leukemia cells and their gemcitabine/Ara-C resistant 10K derivatives^20. The molecular defect responsible for resistance in the L1210 10K cells is loss of dCK expression due to a genetic modification of chromosome 5 in the 3′ region of the dCK gene. The 10K cell line was derived by exposing the parental L1210 cells to increasing concentrations of gemcitabine^20; before experiments, we confirmed that L1210 10K cells lack expression of dCK at the protein level (FIG. 13). Thus, to determine whether D-FAC retention correlates with gemcitabine resistance in these cells, we performed radioactive tracer uptake assays using [^3H]D-FAC with [^3H]-FLT used as a negative control. We observed that the gemcitabine-resistant L1210-10K cell line retained much lower amounts of [^3H]D-FAC in contrast to the gemcitabine-sensitive L1210 parental cell line (FIG. 14A). In fact, [^3H]D-FAC uptake was 40-fold higher in dCK^+ cells compared to cells lacking dCK activity (dCK^+=1288 fmols/1×10^5 cells; dCK-=34 fmols/1×10^5 cells; p<0.001). In contrast, [^3H]FLT uptake was indistinguishable between these cell lines. FIG. 14B presents a [^3H]D-FAC kinase assay with the L1210 cell lines using [^3H]D-FAC as a substrate (1 microgram protein/reaction). In dCK positive cells shown in FIG. 14B, D-FAC phosphorylation was 52-fold higher than in dCK deficient cells (dCK^+=62 fmols; dCK^−=1.2 fmols; p=0.028). Reintroduction of dCK into the L1210-10K cells restored [^18F]D-FAC uptake and phosphorylation (FIG. 14), thus further confirming the critical role of this nucleoside kinase in regulating D-FAC metabolism.
(§2) Each cell type was incubated separately with each of the following: [^18F]L-FAC, and [^18F]-CA, and the positive control [^18F]D-FAC. The cells were incubated with [^18F]L-FAC, [^18F]-CA, and [^18F]D-FAC for 1 hour. Following successive washes, intracellular radioactivity was measured by scintillation counting to obtain the result shown in FIG. 17A.

[6] = system: L1210-10K cell line (lacking dCK); assay: radioactive tracer uptake assay, L1210-10K cells; type: cell-based, murine
Description: To evaluate whether [^18F]D-FAC PET can determine resistance to gemcitabine and Ara-C, we used a previously described experimental model based on the L1210 murine leukemia cells and their gemcitabine/Ara-C resistant 10K derivatives^20. The molecular defect responsible for resistance in the L1210 10K cells is loss of dCK expression due to a genetic modification of chromosome 5 in the 3′ region of the dCK gene. The 10K cell line was derived by exposing the parental L1210 cells to increasing concentrations of gemcitabine^20; before experiments, we confirmed that L1210 10K cells lack expression of dCK at the protein level (FIG. 13). Thus, to determine whether D-FAC retention correlates with gemcitabine resistance in these cells, we performed radioactive tracer uptake assays using [^3H]D-FAC with [^3H]-FLT used as a negative control. We observed that the gemcitabine-resistant L1210-10K cell line retained much lower amounts of [^3H]D-FAC in contrast to the gemcitabine-sensitive L1210 parental cell line (FIG. 14A). […]
Each cell type was incubated separately with each of the following: [^18F]L-FAC, and [^18F]-CA, and the positive control [^18F]D-FAC. […] Following successive washes, intracellular radioactivity was measured by scintillation counting to obtain the result shown in FIG. 17A.

[7] = molecular target: T1, deoxycytidine kinase (dCK) (Mus musculus, UniProt P43346); assay: kinase assay with L1210 cell line lysates; type: biochemical, murine
T1 construct: endogenous in cells; host or cells: L1210 murine leukemia cells (wild type), whole-cell lysate; L1210-10K (dCK-deficient) as negative control
T1 sequence (P43346 whole entry): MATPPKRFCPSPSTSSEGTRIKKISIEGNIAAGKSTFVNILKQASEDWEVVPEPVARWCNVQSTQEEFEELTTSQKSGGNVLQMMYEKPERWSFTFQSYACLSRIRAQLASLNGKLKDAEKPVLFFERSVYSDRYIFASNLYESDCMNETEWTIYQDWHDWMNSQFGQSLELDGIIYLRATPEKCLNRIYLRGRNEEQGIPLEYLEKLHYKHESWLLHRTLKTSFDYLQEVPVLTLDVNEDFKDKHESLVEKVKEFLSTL
Description: as §1, §2
(§3) Lysates from L1210 wildtype (WT) and dCK deficient (10K) cells were incubated for 20 minutes with [^18F]L-FMAC; phosphorylated products were measured by scintillation counting.

[8] = system: deoxycytidine kinase (dCK); assay: kinase assay with L1210 cell line lysates; type: biochemical, murine; conditions: dCK^− cells; 1 microgram protein/reaction
Description: as §1, §2, §3

[9] = chromatography of plasma after intravenous injection of probe (deamination); type: in vivo, C57BL/6 mouse; conditions: plasma 10 and 45 minutes after intravenous injection
[10] = system: pancreatic inflammatory lesions; assay: PET/CT scan of human with chronic pancreatitis; type: in vivo; conditions: person
Description: FIG. 30 presents PET/CT scans of a human with chronic pancreatitis. The pancreas head 301 is visible.

[11] = chromatography after incubation of probe with human plasma; conditions: 10 and 45 minutes incubation
[12] = spleen, 60 min after intravenous injection, 3 mice
[13] = C57/BL6, mouse, in vivo, iv, 60 min

Molecule: 2-[^18F]fluoro-2-deoxy-D-glucose [[^18F]FDG, reference compound]
accumulation in tumor over background (contralateral muscle tissue) ([1]; tumor lesions): 8.2±4.2 % ID/g tumor over background | accumulation in gemcitabine sensitive versus resistant cells ([2]; mouse, in vivo): equivalent | retention in the brain and the myocardium (mouse, in vivo): substantially accumulates | Spleen, % ID/g per organ normalized to % ID/g muscle [12]: 1.69 +/− 0.16 % ID/g per organ normalized to % ID/g muscle

Molecule: Nc1ccn(C2O[C@H](CO)[C@@H](O)[C@@H]2F)c(=O)n1 (stereo partly drawn) [[^3H]D-FAC, 1-(2′-deoxy-2′-fluoro-arabinofuranosyl) cytosine]
incorporation into DNA of proliferating T cells [3]: incorporated in the DNA | uptake in cells overexpressing dCK and SLC29A1 [4]: increased uptake | uptake ([5]; dCK^+ cells): 1288 fmols/1×10^5 cells | uptake in dCK^+ cells compared to cells lacking dCK activity ([5]; p<0.001): 40 fold | uptake [6]: 34 fmols/1×10^5 cells | phosphorylation ([7]; dCK^+ cells, 1 microgram protein/reaction): 62 fmols | phosphorylation in dCK positive cells versus dCK deficient cells ([7]; p=0.028): 52 fold | phosphorylation [8]: 1.2 fmols

Molecule: Cc1cn([C@H]2C[C@H](F)[C@@H](CO)O2)c(=O)[nH]c1=O [[^3H]FLT, 3′-fluoro-3′-deoxythymidine, reference compound]
uptake compared between L1210 and L1210-10K cell lines ([5]; negative control): indistinguishable

Molecule: Nc1nc(Cl)nc2c1ncn2[C@@H]1O[C@H](CO)[C@@H](O)[C@@H]1[18F] [[^18F]-CA, 2-chloro-9-(2′-deoxy-2′-[^18F]fluoro-β-D-arabinofuranosyl)adenine]
dependence of retention and phosphorylation on dCK expression [5]: requires dCK expression

Molecule: Cc1cn([C@H]2C[C@H](F)[C@@H](CO)O2)c(=O)[nH]c1=O [[^18F]FLT, 3′-fluoro-3′-deoxythymidine]
accumulation at sites of immune activation ([1]; day 14): no detectable | Spleen, % ID/g per organ normalized to % ID/g muscle [13]: 1.02 +/− 0.21 % ID/g per organ normalized to % ID/g muscle | Thymus, % ID/g per organ normalized to % ID/g muscle [13]: 1.22 +/− 0.23 % ID/g per organ normalized to % ID/g muscle | accumulation in thymus and spleen [13]: neither [^18F]FLT nor [^18F]D-FMAU showed detectable accumulation

Molecule: Cc1cn([C@@H]2O[C@H](CO)[C@@H](O)[C@@H]2F)c(=O)[nH]c1=O [[^18F]FMAU, 1-(2′-Deoxy-2′-fluoro-β-D-arabinofuranosyl)-5-methyluracil]
accumulation in thymus and spleen (60 min after intravenous injection): neither [^18F]FLT nor [^18F]D-FMAU showed detectable accumulation | Spleen, % ID/g per organ normalized to % ID/g muscle [12]: 1.08 +/− 0.27 % ID/g per organ normalized to % ID/g muscle | Thymus, % ID/g per organ normalized to % ID/g muscle (thymus, 60 min after intravenous injection, 3 mice): 1.33 +/− 0.24 % ID/g per organ normalized to % ID/g muscle

Molecule: Nc1ccn([C@H]2O[C@@H](CO)[C@H](O)[C@H]2[18F])c(=O)n1 [[^18F]L-FAC, 1-(2′-deoxy-2′-[^18F]fluoro-β-L-arabinofuranosyl)cytosine]
dependence of retention and phosphorylation on dCK expression [5]: requires dCK expression | retention/visualization in dCK deficient, gemcitabine resistant tumors ([2]; L1210-10K, 4 days after injection): not visualization | retention/visualization in dCK positive, gemcitabine sensitive tumors ([2]; L1210 WT, 4 days after injection): allows visualization | resistance to deamination in plasma after injection into mice [9]: more resistant to deamination than [^18F]D-FAC | accumulation in pancreatic inflammatory lesions [10]: clear accumulation | biodistribution compared with [^18F]D-FAC (60 minutes after intravenous injection): resembles that of [^18F]D-FAC | stability in human plasma [11]: improved stability relative to [^18F]D-FAC

dependence of retention and phosphorylation on dCK expression ([7]; L1210 WT and 10K lysates, 20 minutes incubation): requires dCK expression | resistance to deamination in plasma after injection into mice [9]: resistant to deamination
Molecule: Cc1cn([C@H]2O[C@@H](CO)[C@H](O)[C@H]2[18F])c(=O)nc1N [[^18F]L-FMAC]

Molecule: Nc1ccn([C@@H]2O[C@H](CO)[C@@H](O)C2(F)F)c(=O)n1 [dFdC, 2′,2′-difluorodeoxycytidine, reference compound]
difference in probe retention by proliferating compared to naïve T cells ([3]; 1 hr incubation, 72 hrs after stimulation): > 20 fold
